From PubChem BioAssay AID206 (DTP/NCI, 2004)
Inconclusive results are not listed.

Test system: nude mice, HT29 intrarenal xenograft, tumor weight T/C
Assay: NCI In Vivo Anticancer Drug Screen. Data for tumor model HT29;CX-1 Human Adenocarcinoma (MER+) (intrarenal inoculation) in NU/NU Swiss (nude) mice
Settings: endpoint: mean tumor weight change, higher = larger tumour
How it was run: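 Endpoint measured as tumor size or survival; ratio reported is treated group over vehicle controls.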

[1] = dose: 50.0 mg/kg/injection, schedule: Q01DX010 (sc), vehicle: Klucel (hydroxypropylcellulose) (HPC)
[2] = dose: 100.0 mg/kg/injection, schedule: Q01DX010 (sc), vehicle: Klucel (hydroxypropylcellulose) (HPC)
[3] = dose: 200.0 mg/kg/injection, schedule: Q01DX010 (sc), vehicle: Klucel (hydroxypropylcellulose) (HPC)

CCCCCCCCCCCCCCC/C([O-])=N/[N+](C)(C)CC(C)O (centres undefined)
T/C (dose: 50.0 mg/kg/injection, schedule: Q04DX004 (sc), vehicle: Klucel (hydroxypropylcellulose) (HPC)): 106 % of control | T/C (dose: 100.0 mg/kg/injection, schedule: Q04DX004 (sc), vehicle: Klucel (hydroxypropylcellulose) (HPC)): 103 % of control | T/C (dose: 200.0 mg/kg/injection, schedule: Q04DX004 (sc), vehicle: Klucel (hydroxypropylcellulose) (HPC)): 86 % of control | T/C (dose: 400.0 mg/kg/injection, schedule: Q04DX004 (sc), vehicle: Klucel (hydroxypropylcellulose) (HPC)): 110 % of control

NC(=O)/C=C/c1c[nH]c2nccnc12
T/C (dose: 25.0 mg/kg/injection, schedule: Q04DX004 (sc), vehicle: water): 114 % of control | T/C (dose: 50.0 mg/kg/injection, schedule: Q04DX004 (sc), vehicle: water): 64 % of control | T/C (dose: 100.0 mg/kg/injection, schedule: Q04DX004 (sc), vehicle: water): 86 % of control | T/C (dose: 200.0 mg/kg/injection, schedule: Q04DX004 (sc), vehicle: water): 102 % of control

OC(C1CO1)C(O)C1CO1 (centres undefined)
T/C (dose: 0.5 mg/kg/injection, schedule: Q01DX010 (sc), vehicle: saline): 113 % of control | T/C (dose: 1.0 mg/kg/injection, schedule: Q01DX010 (sc), vehicle: saline): 52 % of control

C1OCN2CSCC12 (centres undefined)
T/C (dose: 100.0 mg/kg/injection, schedule: Q04DX004 (sc), vehicle: saline with Tween-80): 39 % of control | T/C (dose: 200.0 mg/kg/injection, schedule: Q04DX004 (sc), vehicle: saline with Tween-80): 80 % of control | T/C (dose: 400.0 mg/kg/injection, schedule: Q04DX004 (sc), vehicle: saline with Tween-80): 46 % of control

O=C(O)C1CSCN1 (centres undefined)
T/C (dose: 50.0 mg/kg/injection, schedule: Q01DX010 (sc), vehicle: water): 96 % of control | T/C (dose: 100.0 mg/kg/injection, schedule: Q01DX010 (sc), vehicle: water): 105 % of control

C/C(=C\c1ccccc1)[N+](=O)[O-]
T/C [1]: 91 % of control | T/C [2]: 110 % of control

CCC1CCCCN1C(=S)N/N=C(\C)c1ccccn1 (centres undefined)
T/C (dose: 37.5 mg/kg/injection, schedule: Q04DX004 (sc), vehicle: saline with Tween-80): 59 % of control | T/C (dose: 75.0 mg/kg/injection, schedule: Q04DX004 (sc), vehicle: saline with Tween-80): 26 % of control

Nc1ccccc1N
T/C [2]: 206 % of control | T/C [3]: 115 % of control

CCCCCC(O)C1C(=O)OC(C)C(O)/C=C/C=C/C=C/C=C\C=C(\C)C(O)CC(O)CC(O)CC(O)CC(O)CC(O)CC1O (centres undefined)
T/C (dose: 37.5 mg/kg/injection, schedule: Q04DX004 (sc), vehicle: distilled water + alcohol): 73 % of control | T/C (dose: 75.0 mg/kg/injection, schedule: Q04DX004 (sc), vehicle: distilled water + alcohol): 110 % of control | T/C (dose: 150.0 mg/kg/injection, schedule: Q04DX004 (sc), vehicle: distilled water + alcohol): 107 % of control

O=c1n(CC2CO2)c(=O)n(CC2CO2)n1CC1CO1 (centres undefined)
T/C (dose: 37.5 mg/kg/injection, schedule: Q04DX004 (sc), vehicle: suspension in saline): 76 % of control

COc1c(C=O)c2c(c(OC)c1OC)-c1ccc(OC)c(=O)cc1[C@@H](NC(C)=O)CC2
T/C (dose: 18.75 mg/kg/injection, schedule: Q04DX004 (sc), vehicle: Klucel (hydroxypropylcellulose) (HPC)): 70 % of control | T/C (dose: 37.5 mg/kg/injection, schedule: Q04DX004 (sc), vehicle: Klucel (hydroxypropylcellulose) (HPC)): 71 % of control

C=CCNc1ccc(C)cc1
T/C [1]: 105 % of control | T/C [3]: 86 % of control

Oc1cc2ccccc2c(-c2c(O)c(O)cc3ccccc23)c1O
T/C (dose: 225.0 mg/kg/injection, schedule: Q04DX004 (sc), vehicle: saline with Tween-80): 101 % of control | T/C (dose: 450.0 mg/kg/injection, schedule: Q04DX004 (sc), vehicle: saline with Tween-80): 55 % of control | T/C (dose: 900.0 mg/kg/injection, schedule: Q04DX004 (sc), vehicle: saline with Tween-80): 86 % of control | T/C (dose: 1200.0 mg/kg/injection, schedule: Q04DX004 (sc), vehicle: saline with Tween-80): 120 % of control | T/C (dose: 1800.0 mg/kg/injection, schedule: Q04DX004 (sc), vehicle: saline with Tween-80): 28 % of control | T/C (dose: 2400.0 mg/kg/injection, schedule: Q04DX004 (sc), vehicle: saline with Tween-80): 94 % of control

CNC(=O)OCc1c(COC(=O)NC)c(-c2ccc(Cl)c(Cl)c2)n2c1Cc1ccccc1C2
T/C (dose: 300.0 mg/kg/injection, schedule: Q04DX004 (sc), vehicle: distilled water + Tween-80): 109 % of control | T/C (dose: 600.0 mg/kg/injection, schedule: Q04DX004 (sc), vehicle: distilled water + Tween-80): 119 % of control | T/C (dose: 1200.0 mg/kg/injection, schedule: Q04DX004 (sc), vehicle: distilled water + Tween-80): 61 % of control | T/C (dose: 2400.0 mg/kg/injection, schedule: Q04DX004 (sc), vehicle: distilled water + Tween-80): 65 % of control
